The text below walks through data of ChEMBL document CHEMBL1139096, “HeLa cells apoptosis induced by 1,7-dimethyl-1,4,7,10-tetraazacyclododecane” (2007).

The subject of assay [1] is HeLa. As to the kind of experiment: Cell cycle arrest in human HeLa cells assessed as accumulation at G2/M phase at 300 umol/L after 72 hrs. In kind it is functional.
The subject of assay [2] is HeLa. In words: Cell cycle arrest in human HeLa cells assessed as accumulation at G0-G1 phase at 50 umol/L after 72 hrs. In kind it is functional.
In assay [3] the test system is HeLa. In words: Cell cycle arrest in human HeLa cells assessed as accumulation at G0-G1 phase at 300 umol/L after 72 hrs. The class given is functional.
For assay [4], the system named is HeLa. In words: Induction of apoptosis in human HeLa cells assessed as morphological changes at 50 umol/L. In kind it is functional, cell-based.
The test system of assay [5] is HeLa. In words: Growth inhibition of human HeLa cells at 0.1 mM by MTT assay. Particulars: read-out: GI. The class given is functional.
The test system of assay [6] is HeLa. In words: Growth inhibition of human HeLa cells at 10 uM by MTT assay. In kind it is functional. Particulars: read-out: GI.
Assay [7] deals with HeLa. In words: Growth inhibition of human HeLa cells at 1 uM by MTT assay. The class given is functional. Conditions: read-out: GI. (In general: Tetrazolium assays rely on reduction of a dye to a coloured formazan, in cell work by metabolically active cells.)
The subject of assay [8] is HeLa. As to the kind of experiment: Growth inhibition of human HeLa cells at 0.1 uM by MTT assay. The class given is functional.
In assay [9] the test system is A549. As to the kind of experiment: Growth inhibition of human A549 cells at 0.1 mM by MTT assay. The class given is functional. Particulars: read-out: GI.
Assay [10] concerns A549. As to the kind of experiment: Growth inhibition of human A549 cells at 10 uM by MTT assay. The class given is functional. Conditions: read-out: GI.
In assay [11] the test system is A549. In words: Growth inhibition of human A549 cells at 1 uM by MTT assay. The class given is functional. Conditions: read-out: GI.
Assay [12] relates to A549. In words: Growth inhibition of human A549 cells at 0.1 uM by MTT assay. Conditions: read-out: GI. The class given is functional.
The subject of assay [13] is HeLa. As to the kind of experiment: Induction of apoptosis in human HeLa cells at 300 umol/L by flow cytometry. The class given is functional. A general note: In flow cytometry, cells or beads pass a laser one at a time.
In assay [14] the test system is A549. In words: Induction of apoptosis in human A549 cells at 200 umol/L by flow cytometry. The class given is functional.
Assay [15] concerns HeLa. In words: Cell cycle arrest in human HeLa cells assessed as accumulation at S phase at 50 umol/L after 72 hrs. The class given is functional.
Assay [16] deals with HeLa. As to the kind of experiment: Cell cycle arrest in human HeLa cells assessed as accumulation at S phase at 300 umol/L after 72 hrs. In kind it is functional.
Assay [17] has as its system HeLa. In words: Cell cycle arrest in human HeLa cells assessed as accumulation at G2/M phase at 200 umol/L after 72 hrs. In kind it is functional.
The subject of assay [18] is HeLa. As to the kind of experiment: Induction of apoptosis in human HeLa cells assessed as morphological changes at 100 umol/L. In kind it is functional, cell-based.
Assay [19] deals with HeLa. As to the kind of experiment: Induction of apoptosis in human HeLa cells assessed as morphological changes at 200 umol/L. In kind it is functional, cell-based.
The test system of assay [20] is HeLa. In words: Induction of apoptosis in human HeLa cells assessed as DNA fragmentation at 200 umol/L by electrophoresis. The class given is functional, cell-based.

Active and inactive are the calls of the source. No cut-off for these calls is given here.

For the molecule `CN1CCNCCN(C)CCNCC1`, the Activity came to 15.3% in the assay on HeLa [1]; 60.5% with HeLa [2]; 84.7% in the assay with HeLa [3]; 55% in the assay with HeLa [13]; 7% in the assay on A549 [14]; 33.3% with HeLa [15]. In addition, the results for the Activity in the assay with HeLa [16] and in the assay with HeLa [17] were 0% and 25.2%, respectively. Further, the outcome in the assay on HeLa [4] was inactive. Besides, the inhibition of growth at 100 µM with HeLa [5] was 63.1%; with A549 [9] it was 53.6%. The figures for the inhibition of growth at 10 µM in the assay with HeLa [6] and in the assay with A549 [10] were 17.7% and 22.4%, respectively. Further, the inhibition of growth at 1 µM in the assay on HeLa [7] was found to be 9.8%; in the assay on A549 [11], 13.7%. The growth inhibition (GI) in the assay on HeLa [8] was 9%. The inhibition of growth at 0.1 µM with A549 [12] worked out at 11%. The result with HeLa [18], in the assay with HeLa [19] and in the assay with HeLa [20] was Active.
